The target of this assay is EGFR (UniProt P00533).
Chain of EGFR (P00533 whole entry, looked up): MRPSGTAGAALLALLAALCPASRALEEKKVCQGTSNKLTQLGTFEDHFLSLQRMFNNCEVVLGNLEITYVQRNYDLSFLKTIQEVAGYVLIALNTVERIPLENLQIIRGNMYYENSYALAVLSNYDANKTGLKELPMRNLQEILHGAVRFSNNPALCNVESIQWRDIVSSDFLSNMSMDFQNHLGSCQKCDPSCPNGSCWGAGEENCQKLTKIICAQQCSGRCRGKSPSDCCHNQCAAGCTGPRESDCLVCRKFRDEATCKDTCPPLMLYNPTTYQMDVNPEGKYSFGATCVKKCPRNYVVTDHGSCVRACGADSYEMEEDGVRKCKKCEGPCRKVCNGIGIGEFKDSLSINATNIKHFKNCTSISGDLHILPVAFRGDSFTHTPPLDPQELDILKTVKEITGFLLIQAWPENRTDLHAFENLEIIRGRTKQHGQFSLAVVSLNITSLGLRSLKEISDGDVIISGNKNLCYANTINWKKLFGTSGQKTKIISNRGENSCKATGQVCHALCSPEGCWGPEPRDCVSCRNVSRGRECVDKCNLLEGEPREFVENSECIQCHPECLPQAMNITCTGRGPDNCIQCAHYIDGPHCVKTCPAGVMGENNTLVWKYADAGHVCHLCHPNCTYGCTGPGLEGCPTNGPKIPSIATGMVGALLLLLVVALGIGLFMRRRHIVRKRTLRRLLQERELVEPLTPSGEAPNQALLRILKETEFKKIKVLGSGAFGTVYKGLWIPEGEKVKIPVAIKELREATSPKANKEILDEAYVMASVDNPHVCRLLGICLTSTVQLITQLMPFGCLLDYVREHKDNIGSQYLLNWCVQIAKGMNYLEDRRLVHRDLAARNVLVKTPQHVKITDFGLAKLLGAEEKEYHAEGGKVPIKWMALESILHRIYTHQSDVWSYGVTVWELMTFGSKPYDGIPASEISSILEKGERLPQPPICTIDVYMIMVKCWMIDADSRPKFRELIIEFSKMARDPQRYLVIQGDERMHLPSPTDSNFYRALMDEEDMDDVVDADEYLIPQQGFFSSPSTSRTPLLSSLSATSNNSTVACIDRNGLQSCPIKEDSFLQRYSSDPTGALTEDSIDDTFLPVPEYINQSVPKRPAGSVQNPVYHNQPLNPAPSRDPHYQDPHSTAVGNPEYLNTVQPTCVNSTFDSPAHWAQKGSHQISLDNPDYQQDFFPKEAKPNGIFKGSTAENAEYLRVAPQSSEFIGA

As to `O=C(O)c1ccc(-c2cc3c(Nc4cccc(Cl)c4)ncnc3[nH]2)cc1`, the IC50 is less than 5 nM.
The result for `Brc1cccc(Nc2ncnc3ccccc23)c1` reads 27 nM.
`Nc1cccc(-c2cc3c(Nc4cccc(Cl)c4)ncnc3[nH]2)c1` yielded an IC50 of less than 5 nM.
In turn, `COc1cc2nc(C)nc(Nc3cccc(Br)c3)c2cc1OC` yielded an IC50 greater than 10000 nM.
As for `COc1cc2nc(N)nc(Nc3cccc(Br)c3)c2cc1OC`, the IC50 was found to be 463 nM.
For `CCN(CC)CCOc1ccc(Nc2ncc3cc(-c4c(Cl)cccc4Cl)c(NC(=O)NC(C)(C)C)nc3n2)cc1`, the IC50 worked out at 24 nM.
In the case of `Cn1c(=O)c(-c2c(Cl)cccc2Cl)cc2cnc(N)nc21`, the IC50 is 5600 nM.
The molecule `Brc1cccc(Nc2nccc3ccccc23)c1` showed an IC50 greater than 100000 nM.
The result for `Oc1ccc(-c2cc3c(Nc4cccc(Cl)c4)ncnc3[nH]2)cc1` reads less than 5 nM.
For the molecule `Nc1ccc(-c2cc3c(Nc4cccc(Cl)c4)ncnc3[nH]2)cc1`, the IC50 was less than 5 nM.
The result for `Cc1[nH]c2ncnc(Nc3cccc(C(=O)O)c3)c2c1C` reads 16300 nM; that for `Clc1cccc(Nc2ncnc3[nH]nc(Nc4cccc(Cl)c4)c23)c1`, 84 nM; that for `Cc1[nH]c2ncnc(Nc3cccc(O)c3)c2c1C`, 1250 nM.
For `CCOC(=O)c1ccc(-c2cc3c(Nc4cccc(Cl)c4)ncnc3[nH]2)cc1` the value was less than 5 nM; for `CN(C)c1ncc2cc(-c3c(Cl)cccc3Cl)c(=O)n(C)c2n1`, 50000 nM; for `Oc1cccc(-c2cc3c(Nc4cccc(Cl)c4)ncnc3[nH]2)c1`, less than 5 nM.
Consider `Brc1cccc(Nc2ccnc3ccccc23)c1`, for which the IC50 was 5500 nM.
As to `Cc1[nH]c2ncnc(Nc3cccc(Br)c3)c2c1C`, the IC50 worked out at 27 nM.
`Cc1c(-c2ccccc2)[nH]c2ncnc(Nc3cccc(Cl)c3)c12` came in with an IC50 of 10 nM.
